Calls of active or inactive are those of the source. The rule behind the calls is not given here.
How the values were obtained:
[1] = Cmax in rat at 10 mg/kg, ip and measured upto 24 hrs by LC-MS/MS analysis; assay type: ADME, organism-based; set-up: time < 24 hrs, dose 10 mg/kg, route ip; conditions: in vivo
[2] = Toxicity in immunodeficient BALB/c mouse assessed as change in CK level at 20 mg/kg, ip for 14 days by biochemical analysis; assay type: organism-based; conditions: in vivo, 336 h, time 14 day
[3] = tested on: MDA-MB-231; experiment: Induction of ferroptosis in siRNA mediated GPX4 knockdown human MDA-MB-231 cells with assessed as cell viability at 10 nM incubated for 10 hrs by MTT assay; assay type: functional, cell-based
[4] = tested on: MDA-MB-231; experiment: Induction of ferroptosis in human MDA-MB-231 cells with assessed as decrease in GPX4 protein expression level at 5 to 20 nM incubated for 8 hrs by Western blot analysis; assay type: functional, cell-based; conditions: dose 5-20 nM
[5] = tested on: MDA-MB-231; experiment: Induction of ferroptosis in human MDA-MB-231 cells assessed as cell viability incubated for 72 hrs in presence of necrosis inhibitor, necrostatin-1 by MTT assay; assay type: functional, cell-based; conditions: MDA-MB-231, 72 h
[6] = tested on: MDA-MB-231; experiment: Induction of ferroptosis-mediated morphological changes in human MDA-MB-231 cells assessed as smaller mitochondrial volume at 20 nM incubated for 6 hrs by TEM analysis; assay type: functional, cell-based
[7] = Toxicity in immunodeficient BALB/c mouse assessed as change in BUN level at 20 mg/kg, ip for 14 days by biochemical analysis; assay type: organism-based; conditions: in vivo, 336 h, time 14 day
[8] = tested on: 4T1; experiment: Antiproliferative activity against mouse 4T1 cells assessed as inhibition of cell viability at 1 uM incubated for 72 hrs by MTT assay; assay type: functional, cell-based
[9] = biological target: T1, Phospholipid hydroperoxide glutathione peroxidase GPX4 (Homo sapiens) (UniProt P36969); experiment: Binding affinity to GPX4 (35 to 48 residues) (unknown origin) at Sec46 residue assessed as increase in mass of single charged y3+ ion at 100 uM incubated for 1.5 hrs by SDS-PAGE based LC-MS/MS analysis
T1 sequence (whole entry): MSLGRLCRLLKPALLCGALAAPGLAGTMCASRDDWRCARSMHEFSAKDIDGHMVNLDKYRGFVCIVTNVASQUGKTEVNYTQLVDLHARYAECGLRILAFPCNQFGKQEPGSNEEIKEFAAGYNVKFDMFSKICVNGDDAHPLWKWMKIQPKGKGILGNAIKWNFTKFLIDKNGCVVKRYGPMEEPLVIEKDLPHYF

[10] = Toxicity in immunodeficient BALB/c mouse assessed as change in AST level at 20 mg/kg, ip for 14 days by biochemical analysis; assay type: organism-based; conditions: in vivo, 336 h, time 14 day
[11] = Tmax in rat at 10 mg/kg, ip and measured upto 24 hrs by LC-MS/MS analysis; assay type: ADME, organism-based; conditions: in vivo
[12] = biological target: T1, Phospholipid hydroperoxide glutathione peroxidase GPX4 (Homo sapiens); experiment: Binding affinity to GPX4 in human MDA-MB-231 cells assessed as decrease in apprent aggregation temperature at 1 uM incubated for 2 hrs by CESTA analysis (Rvb=58.3 +/- 0.7 degreeC); assay type: cell-based
[13] = tested on: MDA-MB-231; experiment: Induction of ferroptosis-mediated morphological changes in human MDA-MB-231 cells assessed as round and vacuolated cells at 20 nM incubated for 6 hrs by TEM analysis; assay type: functional, cell-based
[14] = biological target: T1, Phospholipid hydroperoxide glutathione peroxidase GPX4 (Homo sapiens); experiment: Binding affinity to GPX4 (unknown origin) at Cys66 residue assessed as change in mass of single charged b4+ ion at 100 uM incubated for 1.5 hrs by SDS-PAGE based LC-MS/MS analysis
[15] = MRT(t) in rat at 10 mg/kg, ip and measured upto 24 hrs by LC-MS/MS analysis; assay type: ADME, organism-based; conditions: in vivo
[16] = biological target: T1, Phospholipid hydroperoxide glutathione peroxidase GPX4 (Homo sapiens); experiment: Binding affinity to GPX4 in human MDA-MB-231 cells assessed as reduction in thermal stability at 1 uM incubated for 2 hrs by CESTA analysis; assay type: cell-based
[17] = AUCt in rat at 10 mg/kg, ip and measured upto 24 hrs by LC-MS/MS analysis; assay type: ADME, organism-based; set-up: dose 10 mg/kg, time < 24 hrs, route ip; conditions: in vivo
[18] = tested on: MDA-MB-231; experiment: Induction of ferroptosis in siRNA mediated GPX4 knockdown human MDA-MB-231 cells with assessed as intracellular lipid peroxidase at 20 nM incubated for 8 hrs by C11-BODIPY-581/591 staining based confocal laser microscopy; assay type: functional, cell-based
[19] = tested on: MDA-MB-231; experiment: Induction of ferroptosis-mediated morphological changes in human MDA-MB-231 cells assessed as change in nuclear morphology at 20 nM incubated for 6 hrs by TEM analysis; assay type: functional, cell-based
[20] = tested on: MDA-MB-231; experiment: Induction of ferroptosis in human MDA-MB-231 cells assessed as induction of lipid peroxidase accumulation at 5 to 20 nM incubated for 8 hrs by C11-BODIPY-581/591 staining based flow cytometry analysis; assay type: functional, cell-based; conditions: dose 5-20 nM
[21] = biological target: T1, Phospholipid hydroperoxide glutathione peroxidase GPX4 (Homo sapiens); experiment: Inhibition of GPX4 (unknown origin) at 1 uM incubated for 1 hrs in presence of glutathione and glutathione reductase by microplate reader analysis
[22] = tested on: MDA-MB-231; experiment: Induction of ferroptosis in human MDA-MB-231 cells assessed as cell viability at 1 uM incubated for 72 hrs in presence of ferroptosis inhibitor, ferrostatin-1 by MTT assay; assay type: functional, cell-based
[23] = Acute toxicity in ICR mouse assessed as lethality at 200 to 488 mg/kg,ip and measured after 14 days; assay type: organism-based; conditions: in vivo, dose 200-488 mg/kg, time 14 day
[24] = tested on: MDA-MB-231; experiment: Induction of ferroptosis in human MDA-MB-231 cells with assessed as change in ACSL4 protein expression level at 5 to 20 nM incubated for 8 hrs in presence of ferroptosis inhibitor, ferrostatin-1 by Western blot analysis; assay type: functional, cell-based; conditions: dose 5-20 nM
[25] = biological target: T1, Phospholipid hydroperoxide glutathione peroxidase GPX4 (Homo sapiens); experiment: Binding affinity to GPX4 (unknown origin) at Cys66 residue assessed as change in mass of single charged b5+ ion at 100 uM incubated for 1.5 hrs by SDS-PAGE based LC-MS/MS analysis
[26] = tested on: MDA-MB-231; experiment: Induction of ferroptosis in human MDA-MB-231 cells with assessed as decrease in xCT protein expression level at 5 to 20 nM incubated for 8 hrs by Western blot analysis; assay type: functional, cell-based; conditions: dose 5-20 nM
[27] = tested on: MDA-MB-231; experiment: Induction of ferroptosis in human MDA-MB-231 cells with assessed as upregulation of GPX4 protein expression level at 5 to 20 nM incubated for <6 hrs by Western blot analysis; assay type: functional, cell-based; conditions: dose 5-20 nM
[28] = Toxicity in immunodeficient BALB/c mouse xenografted with human MDA-MB-231 cells assessed as morphological changes in heart at 20 mg/kg, ip for 21 days by H and E staining based microscopy; assay type: organism-based; conditions: in vivo, 504 h, time 21 day
[29] = tested on: MDA-MB-231; experiment: Induction of ferroptosis in siRNA mediated GPX4 knockdown human MDA-MB-231 cells with assessed as change in FTH1 protein expression level at 20 nM incubated for 8 hrs by Western blot analysis; assay type: functional, cell-based
[30] = tested on: MDA-MB-231; experiment: Induction of ferroptosis in human MDA-MB-231 cells assessed as cell viability at 1 uM incubated for 72 hrs in presence of autophagy inhibitor, 3-MA by MTT assay; assay type: functional, cell-based
[31] = tested on: MDA-MB-231; experiment: Induction of ferroptosis in human MDA-MB-231 cells assessed as cell viability incubated for 72 hrs in presence of deferoxamine by MTT assay; assay type: functional, cell-based; conditions: MDA-MB-231, 72 h
[32] = Toxicity in immunodeficient BALB/c mouse assessed as bone marrow suppression by measuring WBC level at 20 mg/kg, ip for 14 days by whole blood analysis; assay type: organism-based; conditions: in vivo, 336 h, time 14 day
[33] = Toxicity in immunodeficient BALB/c mouse assessed as bone marrow suppression by measuring RBC level at 20 mg/kg, ip for 14 days by whole blood analysis; assay type: organism-based, Erythrocyte; conditions: in vivo, 336 h, time 14 day

SMILES: COc1cc(N(C(=O)CCl)c2ccc3c(c2)OCCO3)cc(OC)c1F
- Cmax [1]: 5205 ng/mL
- Activity [2]: Toxic
- Activity [3]: inactive
- Activity [4]: Active
- IC50 [5]: 22 nM
- Activity [6]: Active
- Activity [7]: Toxic
- Activity [8]: Active
- Activity [9]: Active
- Activity [10]: Toxic
- Tmax [11]: 0.85 h
- T [12]: 51.8 °C
- Activity [13]: Active
- Activity [14]: inactive
- MRT last at 24 h [15]: 1.71 h
- Activity [16]: Active
- AUCt [17]: 12100 ng·h/mL
- Activity [18]: Active
- Activity [19]: inactive
- Activity [20]: Dose-Dependent Effect
- inhibition [21]: 98.8%
- Activity [22]: Active
- LD50 at 336 h [23]: 338 mg/kg
- Activity [24]: inactive
- Activity [25]: inactive
- Activity [26]: inactive
- Activity [27]: Active
- Activity [28]: Non-Toxic
- Activity [29]: inactive
- Activity [30]: inactive
- IC50 [31]: 2570 nM

SMILES: COc1cc(N(C(=O)CBr)c2ccc3c(c2)OCCO3)cc(OC)c1F
- Activity [2]: Toxic
- Activity [32]: Toxic
- Activity [4]: Active
- IC50 [5]: 25 nM
- Activity [6]: Active
- Activity [33]: Toxic
- Activity [7]: Toxic
- Activity [8]: Active
- Activity [10]: Toxic
- Activity [13]: Active
- Activity [19]: inactive
- Activity [20]: Dose-Dependent Effect
- inhibition [21]: 97.4%
- Activity [22]: Active
- Activity [24]: inactive
- Activity [26]: inactive
- Activity [28]: Non-Toxic
- Activity [30]: inactive
- IC50 [31]: 1850 nM
